Where “and” joins values, the source holds several entries; their conditions need not be identical. Equal entries are not always repeated. Where two headings read alike, the source gives them in different places.
Assays:
Assay type in all cases: cell-based
[1] = tested on: MKN1 cells / γδ T cells; assay: TNF-α production from γδ T cells stimulated by compound-pretreated MKN1 cells; conditions: MKN1, Gastric cancer, 4 hr pretreatment, 16 hr with γδ T cells, read-out: TNF-α50
Procedure: (§1) Since the above-mentioned results of Experimental Example confirm that the activity of bisphosphonic acids becomes high by POM esterification in various tumor cells, the TNF-α production induction ability of more number of tumor cells was quantitatively studied. […] Thereto was added a solution (500 μl) of compound 7 obtained by serially diluting 10 mM stock solution 10-fold from 20 μM, or a solution (500 μl) of compound 14 obtained by serially diluting 10 mM stock solution 10-fold from 200 μM, and the cells were suspended well. These conical tubes were stood at 37° C. for 4 hr, and the cells were washed 3 times with 5 ml of culture medium. To these cells was added 500 μl of medium, and the cells were suspended well. […] The cell culture medium was suspended well, and the plate was centrifuged at 1,700 rpm, 4° C. for 2 min and the culture supernatant (150 μl) was taken and placed in another round-bottomed 96 well plate. The plate was frozen at −80° C. overnight, left standing at room temperature for 1 hr, stirred well and 100 μl thereof was subjected to ELISA of TNF-α. The content of TNF-α was calculated from the analytical curve of TNF-α. These were performed in triplicate, and TNF-α50 of bisphosphonic acid POM ester derivative (compound 7) and bisphosphonic acid (compound 14) was calculated and summarized in Table 8.

[2] = tested on: Raji cells / γδ T cells; assay: TNF-α production from γδ T cells stimulated by compound-pretreated Raji cells; conditions: Burkitt's lymphoma, 4 hr pretreatment, 16 hr with γδ T cells, read-out: TNF-α50
Procedure: as §1

[3] = tested on: EJ-1 cells / γδ T cells; assay: TNF-α production from γδ T cells stimulated by compound-pretreated EJ-1 cells (indirect antitumor action, ELISA); conditions: for EC50: EJ-1 pretreated 4 hr with compound, 16 hr with γδ T cells, TNF-α ELISA, read-out: TNF-α50
Method in brief: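 EJ-1 cells exposed 4 h at 37 °C to 10-fold serial dilutions (POM esters from 20 µM, bisphosphonic acids from 200 µM), washed three times, then co-cultured with γδ T cells. Supernatant TNF-α measured by ELISA against a standard curve, in triplicate; TNF-α50 = […].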

[4] = tested on: 786-0 cells / γδ T cells; assay: TNF-α production from γδ T cells stimulated by compound-pretreated 786-0 cells; conditions: 786-0, Renal cell carcinoma, 4 hr pretreatment, 16 hr with γδ T cells, read-out: TNF-α50
Procedure: as §1

[5] = tested on: OST cells / γδ T cells; assay: TNF-α production from γδ T cells stimulated by compound-pretreated OST cells; conditions: Osteosarcoma, 4 hr pretreatment, 16 hr with γδ T cells, read-out: TNF-α50
Procedure: as §1

[6] = tested on: MOLT-4 cells / γδ T cells; assay: TNF-α production from γδ T cells stimulated by compound-pretreated MOLT-4 cells; conditions: MOLT-4, Acute lymphoblastic leukemia, 4 hr pretreatment, 16 hr with γδ T cells, read-out: TNF-α50
Procedure: as §1

[7] = tested on: Daudi cells; assay: Daudi tumor cell growth inhibition (CellTiterGlo); conditions: Burkitt's lymphoma, 4 days culture
Procedure: To quantitatively study an action of compound 7, which is a bisphosphonic acid POM ester derivative, on various hematologic tumor-derived lymphoma and myeloidic leukemia cells, the concentration of a compound that inhibits cell proliferation to half was calculated as IC50, and a direct antitumor effect was studied from the value thereof. […] First, MOLT-4, THP-1, SCC-3, PEER, RAMOS-RA1, C1R, MOLT-3, Raji, U937, K562, Daudi were cultured in RPMI1640 medium supplemented with 10% calf serum at 37° C. under 5% CO2 atmosphere while maintaining log phase. The cells were recovered, and centrifuged at 1,700 rpm, 4° C. for 5 min. The supernatant was removed, and suspended in RPMI1640 medium supplemented with 10% calf serum to 500 cells/50 μl. On the other hand, 10 mM stock solution of compound 7 which is a bisphosphonic acid POM ester derivative was serially diluted 2-fold from 200 μM. In addition, 10 mM stock solution of compound 14 which is bisphosphonic acid was serially diluted 2-fold from 2 mM. Then, the cell suspension (50 μl, 500 cells) and the compound solution (50 μl) were added to a flat-bottomed 96 well plate and cultured at 37° C. under 5% CO2 atmosphere for 4 days. Then, 100 μl of CellTiterGlo solution was added, and the mixture was pipetted 10 strokes, and transferred to a 96 well OptiPlate. […]

[8] = tested on: U937 cells; assay: U937 cell growth inhibition (direct antitumor action, CellTiterGlo); conditions: for IC50: U937 cell growth inhibition, 4 days culture
Procedure: The direct antitumor action of bisphosphonic acid POM ester and bisphosphonic acid was studied by comparison using U937.
The direct antitumor action of various bisphosphonic acid POM esters was studied by comparison using U937 and EJ-1. The measurement was performed according to Experimental Example 2 and Experimental Example 4.

EC50 ([1]; Homo sapiens, MKN-1) | EC50 ([2]; Homo sapiens) | EC50 ([3]; EJ1) | EC50 ([4]; Homo sapiens) | EC50 ([5]; T-cell) | EC50 ([6]; Homo sapiens) | IC50 ([7]; Homo sapiens, 96 h) | IC50 ([8]; Homo sapiens, U-937, 96 h) | SMILES | EC50 [1] | EC50 [2] | EC50 [3] | TNF-α production induction activity (in words) ([3]; EJ-1 pretreated with compound, γδ T cells) | EC50 [4] | EC50 [5] | EC50 [6] | IC50 [7] | IC50 [8] | direct antitumor activity (in words) ([8]; U937 growth inhibition)
89 µM | > 100000 nM | 68 µM | > 100000 nM | > 100000 nM | > 100000 nM | 76 µM | 26000 nM | O=P(O)(O)C(CNc1nccs1)P(=O)(O)O [Compound 14, 2-(thiazol-2-ylamino)ethylidene-1,1-bisphosphonic Acid, reference compound] | – | – | – | – | – | – | – | – | – | –
– | – | – | – | – | – | – | – | CC(C)(C)C(=O)OCOP(=O)(OCOC(=O)C(C)(C)C)C(CNc1nccs1)P(=O)(OCOC(=O)C(C)(C)C)OCOC(=O)C(C)(C)C [Compound 7, tetrakispivaloyloxymethyl 2-(thiazol-2-ylamino) ethylidene-1,1-bisphosphonate] | 0.56 µM | 53 nM | 0.06 µM | high activity | 65 nM | 600 nM | 59 nM | 0.43 µM | 280 nM and 260 nM | particularly high activity
